Drawing on patent US20170066759A1, “AROMATIC 5-MEMBERED HETEROCYCLIC DERIVATIVE HAVING TRPV4-INHIBITING ACTIVITY” (Shionogi & Co., Ltd., priority 2012, published 2017), this text covers IC50 and Ki for 35 compounds.

By IC50 is commonly meant the point on the concentration scale where inhibition reaches its midpoint. What is called Ki is the equilibrium dissociation constant of an inhibitor or competing ligand from its target.

Read-outs that look alike come from different tables or passages of the source.

Assay [1] deals with T1, human TRPV4 (hTRPV4/CHO cells) (Homo sapiens, UniProt Q9HBA0).
T1 construct: expressed in transfected cells; host or cells: CHO-K1
Description: Test Example 1: TRPV4 inhibitory activity (IC50 value), 4α-PDD stimulation, Fluo4 calcium fluorescence (FLIPR TETRA). The following applies: Test Example 1, 4α-PDD stimulation, read-out: Test 1 IC50. It is filed as cell-based.

Assay [2] concerns the target T1, human TRPV4 (hTRPV4/CHO cells). Description: Test Example 4: TRPV4 inhibitory activity (Ki value), 4α-PDD stimulation, Fluo-3 calcium fluorescence (FDSS 3000). It is filed as cell-based. On the procedure:
TRPV4 Inhibitory Activity (Ki Value)
For each compound, TRPV4 inhibitory activity was measured using cells.
(Method) The procedures of evaluating TRPV4 inhibitory activity of a compound are as follows.
(1) TRPV4 inhibitory activity was measured using CHO-K1 cells stably expressing human TRPV4 (hTRPV4/CHO cells).
(2) Cells were subcultured using the MEM-α medium (SIGMA M4526: 500 ml), FBS (HyCloneSH30070.03: 10%), L-Glutamine 200 mmol/L (GIBCO: 4 mmol/L), P/S (nacalai tesque: 1%), G418 (nacalai tesque: 1 mg/mL).
(3) The 96-well plates which hTRPV4/CHO cells were seeded at densities of 2×10^4 cells/well in the culture medium in the day before the experimental day, and cultured in a CO2 incubator in the presence of 5% CO2 at 37° C. for 24 hours was used as assay plates.
(4) Cells were washed with assay buffer (Hank's Balanced Salt Solution 9.8 g, 1 mol/L HEPES (pH7.5), 250 mmol/L probenecid).
(5) Fluo-3, fluorescent dye for Ca influx assay was added to each well, then the assay plate was incubated in a CO2 incubator in the presence of 5% CO2 at 37° C. for one hour (final conc.; 5 μmol/L Fluo-3).
(6) The assay plate was washed with the assay buffer, and the buffer was remained at 30 μL/well. Then the assay plate was incubated for 10 min at 37° C.
(7) 20 μL of diluted compound solution was added to each well of assay plate, and mixed with built-in Pipette and Mixer of the fluorescence analysis system FDSS 3000 (Hamamatsu Photonics).
(8) 50 μL of 4α-PDD solution (concluding 0.1% Pluronic F-127) was applied to each well of assay plate and mixed.
(9) The fluorescent intensity was measured by FDSS 3000 for 8 min from the point of time addition the compound solution, at Ex 480 nm, Em 540 nm wavelength.
TRPV4 inhibitory activity (Ki value) of a compound was calculated according to the following procedure.
(10) In the presence of the compound, the difference between maximal and minimal of fluorescent intensity value for 8 min from just before addition of 4α-PDD solution was calculated, and it was referred as Max-Min value. Max-Min value of the Ruthenium Red at 10 μM was defined as 100% inhibitory activity, Max-Min value in the absence of the compound was defined as 0% inhibitory activity. TRPV4 inhibitory activity of the compound was calculated by the following formula.
(1−(Max−Min value of the compound−100% inhibitory activity)/(0% inhibitory activity−100% inhibitory activity))×100
(11) By the following formula, inhibitory activity was calculated at 10 points with three fold serial dilution, in the final concentration of the compound from 10 μmol/L to 0.5 nmol/L. The IC50 value was calculated by dose-response curve.
100−[(fluorescent intensity in the presence of the compound−fluorescent intensity of back ground)/(total fluorescent intensity−fluorescent intensity of back ground)]×100
(12) In the presence of the compound, activity of 4α-PDD was measured at 9 points with three fold serial dilution from 20 μmol/L. Activity of 4α-PDD was calculated by the following formula.
(Max−Min value of the each 4α-PDD concentration−0% activity)/(100% activity−0% activity))×100
(13) Effective activity was calculated in 4α-PDD the above. The EC50 value was calculated by dose-response curve.
(14) The Ki value of a compound was calculated by the following formula.
Ki=IC50 value/1+([A]/EC50)
[A]: Concentration of agonist (nmol/L)

Setting [3] is: Test Example 4, 4α-PDD stimulation, read-out: Test 4 Ki.

T1 sequence (Q9HBA0 whole entry): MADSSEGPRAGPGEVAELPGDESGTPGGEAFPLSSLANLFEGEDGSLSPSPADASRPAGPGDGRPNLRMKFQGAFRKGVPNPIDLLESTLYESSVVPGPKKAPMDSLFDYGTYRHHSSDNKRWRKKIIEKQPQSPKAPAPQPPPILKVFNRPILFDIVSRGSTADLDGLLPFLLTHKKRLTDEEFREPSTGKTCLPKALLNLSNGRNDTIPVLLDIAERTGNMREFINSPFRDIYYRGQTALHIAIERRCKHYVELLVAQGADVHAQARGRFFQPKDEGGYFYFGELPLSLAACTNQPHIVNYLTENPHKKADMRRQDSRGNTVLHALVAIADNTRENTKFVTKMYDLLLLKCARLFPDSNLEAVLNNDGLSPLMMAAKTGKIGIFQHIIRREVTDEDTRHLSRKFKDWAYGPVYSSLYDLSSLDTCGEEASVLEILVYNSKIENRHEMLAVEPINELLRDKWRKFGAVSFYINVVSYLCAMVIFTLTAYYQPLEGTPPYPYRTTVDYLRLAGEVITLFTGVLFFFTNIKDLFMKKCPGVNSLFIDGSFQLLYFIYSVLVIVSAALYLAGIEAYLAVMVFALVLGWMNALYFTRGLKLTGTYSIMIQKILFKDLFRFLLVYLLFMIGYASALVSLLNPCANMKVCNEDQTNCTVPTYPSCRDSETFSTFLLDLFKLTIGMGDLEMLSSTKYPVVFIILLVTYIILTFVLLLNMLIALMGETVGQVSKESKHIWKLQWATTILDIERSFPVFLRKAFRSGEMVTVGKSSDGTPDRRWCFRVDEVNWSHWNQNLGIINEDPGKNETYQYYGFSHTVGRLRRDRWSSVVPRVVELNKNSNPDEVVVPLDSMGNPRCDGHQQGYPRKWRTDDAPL

Regarding `Cc1nc(C)c(-c2csc(NC(=O)C(C)C)n2)s1` [Compound I-32], the IC50 in assay [1] lay within 100 to 1000 nM. Moreover, the inhibition constant Ki in assay [2] (setting [3]) is under 100 nM.
As for `Cc1nc(C)c(-c2csc(NC(=O)Cc3ccc(S(=O)(=O)C(F)F)cc3)n2)s1` [Compound I-36], in assay [1], the IC50 is under 100 nM. Also, the Ki in assay [2] (setting [3]) was under 100 nM.
Regarding `Cc1nc(C)c(-c2csc(NC(=O)c3ccc(S(=O)(=O)C(F)(F)F)cc3)n2)s1` [Compound I-24], the IC50 in assay [1] lay in the range of 100 to 1000 nM. In addition, the Ki in assay [2] (setting [3]) lay within 100 to 1000 nM.
As for `Cc1nc(CF)sc1-c1csc(NC(=O)Cc2ccc(S(=O)(=O)C(F)(F)F)cc2)n1` [Compound I-31], the IC50 in assay [1] is under 100 nM. For the same compound, the Ki in assay [2] (setting [3]) is under 100 nM.
For `Cc1nc(C)c(-c2csc(NC(=O)C3CC(=O)N(Cc4ccccc4)C3)n2)s1` (stereo not drawn) [Compound I-47], in assay [1], the IC50 was in the range of 1000 to 8000 nM. In addition, in assay [2] (setting [3]), the Ki fell in the range of 100 to 1000 nM.
For `Cc1nc(C)c(-c2csc(NC(=O)Cc3ccc(S(=O)(=O)C(F)(F)F)cc3)n2)s1` [Compound I-186], in that order: under 100 nM and under 100 nM.
For `Cc1nc(C)c(-c2csc(NC(=O)Cc3ccc(C(F)(F)F)cc3)n2)s1` [Compound I-19], in that order: under 100 nM and under 100 nM.
Regarding `Cc1nc(C)c(-c2csc(NC(=O)C3Cc4ccccc4C3)n2)s1` [Compound I-43], in assay [1], the IC50 was under 100 nM. Besides, in assay [2] (setting [3]), the Ki was under 100 nM.
As to `Cc1nc(C)c(-c2csc(NC(=O)N(C)c3ccc(Br)cc3)n2)s1` [Compound I-59], the IC50 in assay [1] lay in the range of 100 to 1000 nM. The Ki in assay [2] (setting [3]) fell in the range of 100 to 1000 nM.
For `Cc1nc(C)c(-c2csc(NC(=O)C3(c4ccc(Cl)cc4)CC3)n2)s1` [Compound I-2], the IC50 in assay [1] lay within 100 to 1000 nM. The Ki in assay [2] (setting [3]) lay within 100 to 1000 nM.
`Cc1nc(C)c(-c2csc(NC(=O)Cc3ccc(CS(=O)(=O)C(F)(F)F)cc3)n2)s1` [Compound I-35]: the half-maximal inhibitory concentration (IC50) in assay [1] is under 100 nM. In addition, in assay [2] (setting [3]), the Ki is under 100 nM.
In the case of `Cc1nc(C)c(-c2csc(NC(=O)Cc3ccc(F)c(Cl)c3)n2)s1` [Compound I-49], the IC50 in assay [1] was under 100 nM. The Ki in assay [2] (setting [3]) is under 100 nM.
With `Cc1nc(C)c(-c2csc(NC(=O)Cn3cc(Cl)cn3)n2)s1` [Compound I-50], the IC50 in assay [1] fell in the range of 100 to 1000 nM. For the same compound, in assay [2] (setting [3]), the Ki was under 100 nM.
For `Cc1nc(C)c(-c2csc(NC(=O)Cc3ccc(Br)cc3)n2)s1` [Compound I-225], in that order: under 100 nM and under 100 nM.
For the compound `Cc1nc(C)c(-c2csc(NC(=O)C(C)c3ccc(Cl)cc3)n2)s1` (stereo not drawn) [Compound I-4], in assay [1], the IC50 was under 100 nM. The Ki in assay [2] (setting [3]) is under 100 nM.
For `Cc1nc(C)c(-c2csc(NC(=O)C3CC(F)(F)C3)n2)s1` [Compound I-34], the IC50 in assay [1] was 100 to 1000 nM. Further, the Ki in assay [2] (setting [3]) is under 100 nM.
Regarding `Cc1nc(C)c(-c2csc(NC(=O)C3CC3)n2)s1` [Compound I-23], the IC50 in assay [1] was in the range of 100 to 1000 nM. Besides, the Ki in assay [2] (setting [3]) is under 100 nM.
As for `Cc1nc(C)c(-c2csc(NC(=O)C3CCC3)n2)s1` [Compound I-226], the IC50 in assay [1] was 100 to 1000 nM. In addition, in assay [2] (setting [3]), the Ki is under 100 nM.
The like results for `Cc1nc(C)c(-c2csc(NC(=O)C3CC3(F)F)n2)s1` (stereo not drawn) [Compound I-27] were, in that order, 100 to 1000 nM and under 100 nM.
The like results for `Cc1nc(C)c(-c2csc(NC(=O)C(C)(C)c3ccc(Cl)cc3)n2)s1` [Compound I-3] were, in that order, 100 to 1000 nM and 100 to 1000 nM.
Regarding `Cc1nc(C)c(-c2csc(NC(=O)C3CCN(c4ccccc4)C3)n2)s1` (stereo not drawn) [Compound I-46], the IC50 in assay [1] is under 100 nM. Moreover, in assay [2] (setting [3]), the Ki was under 100 nM.
Consider `Cc1nc(C(F)F)sc1-c1csc(NC(=O)Cc2ccc(S(=O)(=O)C(F)(F)F)cc2)n1` [Compound I-29], for which the IC50 in assay [1] lay within 100 to 1000 nM. In assay [2] (setting [3]), the inhibition constant Ki is 100 to 1000 nM.
Turning to `Cc1ncsc1-c1csc(NC(=O)Cc2ccc(Br)cc2)n1` [Compound I-13], the IC50 in assay [1] is under 100 nM. For the same compound, the Ki in assay [2] (setting [3]) was 100 to 1000 nM.
As for `Cc1nc(C)c(-c2csc(NC(=O)CC3CC(F)(F)C3(F)F)n2)s1` (stereo not drawn) [Compound I-53], the IC50 in assay [1] fell in the range of 100 to 1000 nM. In assay [2] (setting [3]), the inhibitory constant (Ki) lay within 100 to 1000 nM.
With `Cc1nc(C)c(-c2csc(NC(=O)C3CCCC3)n2)s1` [Compound I-224], in assay [1], the IC50 fell in the range of 100 to 1000 nM. In addition, the Ki in assay [2] (setting [3]) was under 100 nM.
Turning to `Cc1nc(C)c(-c2csc(NC(=O)[C@H]3CC[C@H](C#N)C3)n2)s1` (racemic) [Compound I-56], the Ki in assay [2] (setting [3]) fell in the range of 100 to 1000 nM.
Still for that read-out and setting: under `Cc1nc(C)c(-c2csc(NC(=O)C3CCC(NCC(F)(F)F)C3)n2)s1` (racemic) [Compound I-39] stands 100 to 1000 nM.
For `Cc1nc(C)c(-c2csc(NC(=O)Cc3ccc(C(F)(F)F)c(F)c3)n2)s1` [Compound I-20], the Ki in assay [2] (4α-PDD, Fluo-3, Ki calculated from IC50 and EC50 of 4α-PDD, read-out: TRPV4 inhibitory activity (Ki value)) was 34.4 nM; in assay [2] (setting [3]), under 100 nM.
For the compound `Cc1nc(C)c(-c2csc(NC(=O)CCC(F)(F)F)n2)s1` [Compound I-38], the Ki in assay [2] (setting [3]) is under 100 nM.
On the same count and under the same terms, under `Cc1nc(C)c(-c2csc(NC(=O)Cc3ccc(Cl)c(F)c3)n2)s1` [Compound I-48] stands under 100 nM.
Regarding `Cc1ncc(-c2csc(NC(=O)Cc3ccc(Br)cc3)n2)s1` [Compound I-14], in assay [1], the half-inhibitory concentration (IC50) was under 100 nM. In addition, in assay [2] (setting [3]), the Ki was under 100 nM.
As to `Cc1nc(C)c(-c2csc(NC(=O)C3CCCCC3)n2)s1` [Compound I-223], the half-inhibitory concentration (IC50) in assay [1] is 100 to 1000 nM. Besides, the Ki in assay [2] (setting [3]) was 100 to 1000 nM.
Regarding `Cc1nc(C)c(-c2csc(NC(=O)c3ccccc3)n2)s1` [Compound I-234], the Ki in assay [2] (setting [3]) fell in the range of 1000 to 3000 nM.
The same measure, in the same setting: then `Cc1nc(C)c(-c2csc(NC(=O)Cc3cc(F)cc(F)c3)n2)s1` [Compound I-52], with under 100 nM; and `Cc1nc(C)c(-c2csc(NC(=O)CC(F)(F)F)n2)s1` [Compound I-45], with 100 to 1000 nM.
